Laboratory results as given in patent publication US20240358735A1, “THERAPEUTIC COMPOSITIONS AND RELATED METHODS” (BOYCE THOMPSON INSTITUTE FOR PLANT RESEARCH, INC., priority 2021, published 2024).

How the values were obtained:
[1] = tested on: proteasome alpha and beta subunits; assay: Limited proteolysis-coupled mass spectrometry (LiP-MS) of C. elegans lysates; type: binding; conditions: FIG. 35; C. elegans lysate, compound 0.1 mM, proteinase K
Excerpt: (§1) To investigate the cellular interactors of MOGLs, two independent approaches were applied: thermal proteome profiling (TPP) and limited proteolysis-coupled mass spectrometry (LiP-MS), to uncover binding events upon compound treatment of C. elegans lysates using MOGLs of the sngl-class as an example. […] Moreover, there were multiple peptides from proteasome alpha subunits and one peptide from the beta unit that were differential, with absence-present contrast, in the LiP-MS experiment (FIG. 35). Results from these two assays which reflect distinct biophysical properties of protein-small molecule binding, strongly support interaction between sngl #1 and sngl #2 with the proteasome.
To obtain mechanistic insight into the binding of proteasome with sngl #1/sngl #2, LiP-MS data were analyzed to reveal peptides around sub-structures of proteins where the binding occurs.
C. elegans lysate preparation and compound incubation. Synchronized pah-1(syb3596); tph-1(mg280) double knockout C. elegans were grown with ΔtnaA E. coli (JW3686-7) for two generations; growth conditions and harvesting procedures were as described in the ‘Nematode cultures’ section above. […] Protein concentration was determined by Bradford assay (MilliporeSigma) and diluted to 1 mg/mL by lysis buffer. […]

[2] = tested on: proteasome alpha and beta subunits; assay: Thermal proteome profiling (TPP) of C. elegans lysates; type: binding; conditions: compound 0.1 mM; for thermal stability of majority detected proteasome alpha and beta subunits (TPP): C. elegans lysate 1 mg/mL, 15 min room temperature, heated; for thermal stability of proteasome subunit PBS-1 (TPP): FIG. 36, C. elegans lysate
Excerpt: as §1
C. elegans lysate preparation and compound incubation. Synchronized pah-1(syb3596); tph-1(mg280) double knockout C. elegans were grown with ΔtnaA E. coli (JW3686-7) for two generations; growth conditions and harvesting procedures were as described in the ‘Nematode cultures’ section above. Worms were lysed by sonication with lysis buffer (25 mM Tris pH 7.5, 150 mM NaCl, 1.5 mM MgCl2.1 mM phenylmethylsulfonyl fluoride, 1× protease inhibitor cocktail (Roche), 1 mM sodium fluoride) for 5 min (3 s on/off pulse cycle at Amp 100). Protein concentration was determined by Bradford assay (MilliporeSigma) and diluted to 1 mg/mL by lysis buffer. To each aliquot of lysate was added compound (sngl #1, sngl #2, N-acetylserotonin, and solvent (ethanol) control (Mock)) to a final concentration of 0.1 mM and the mixtures were shaken for 15 min at room temperature.
Thermal proteome profiling (TPP) sample preparation. Methods were modified from published protocol (Franken, H., T. et al. Nature Protocols 10(10): 1567-1593). Lysate-compound mixture were aliquoted into 0.2-mL PCR tubes, heated at specified temperatures for 3 min using a Thermal Cycler (BioRad), centrifuged at 16,000 g at 4° C. for 5 min, and the supernatant were transferred into Eppendorf tubes. Four volumes of prechilled (−20° C.) acetone were added to each sample for precipitation of proteins overnight. Samples were centrifuged at 16,000 g at 4° C. for 20 min, washed once by methanol, and the resulting protein pellets were dissolved in urea buffer (50 mM ammonium bicarbonate, 2 M thiourea, 6 M urea). To digest proteins for mass spectrometry analysis, proteins were first reduced by dithiothreitol (final concentration 5 mM) for 30 min at room temperature, alkylated by iodoacetamide (final concentration 15 mM) for 30 min at room temperature in the dark, digested by LysC/Trypsin Mix (Promega) (enzyme/substrate=1/30, w/w) based on manufacturer's instructions. […] Peptides were measured by nanoHPLC-MS/MS by standard methods.

Structure (SMILES) | PAS- or PBS-derived peptides detected in LiP-MS [1] | thermal stability of majority detected proteasome alpha and beta subunits (TPP) [2] | thermal stability of proteasome subunit PBS-1 (TPP) [2]
CC(=O)NCCc1c[nH]c2ccc(O[C@@H]3O[C@H](CO)[C@@H](O)[C@H](O)[C@H]3O)cc12 [sngl #1, N-(2-(5-(((2S,3R,4S,5S,6R)-3,4,5-trihydroxy-6-(hydroxymethyl)tetrahydro-2H-pyran-2-yl)oxy)-1H-indol-3-yl)ethyl)acetamide] | indicative of specific binding to PAS and PBS | significantly change the thermal stability | affect the thermal stability
CC(=O)NCCc1c[nH]c2ccc(O[C@@H]3O[C@H](CO)[C@@H](O)[C@H](OP(=O)(O)O)[C@H]3O)cc12 [sngl #2, (2S,3R,4S,5R,6R)-2-((3-(2-acetamidoethyl)-1H-indol-5-yl)oxy)-3,5-dihydroxy-6-(hydroxymethyl)tetrahydro-2H-pyran-4-yl dihydrogen phosphate] | indicative of specific binding to PAS and PBS | significantly change the thermal stability | affect the thermal stability
